Assay [1] deals with T1, human PACAP receptor protein (Homo sapiens, UniProt P41586).
T1 construct: expressed in transfected cells; host or cells: CHO-K1 cells (ICN), pTS849 (pRc/CMV), G-418 selected
T1 sequence (P41586 21-468): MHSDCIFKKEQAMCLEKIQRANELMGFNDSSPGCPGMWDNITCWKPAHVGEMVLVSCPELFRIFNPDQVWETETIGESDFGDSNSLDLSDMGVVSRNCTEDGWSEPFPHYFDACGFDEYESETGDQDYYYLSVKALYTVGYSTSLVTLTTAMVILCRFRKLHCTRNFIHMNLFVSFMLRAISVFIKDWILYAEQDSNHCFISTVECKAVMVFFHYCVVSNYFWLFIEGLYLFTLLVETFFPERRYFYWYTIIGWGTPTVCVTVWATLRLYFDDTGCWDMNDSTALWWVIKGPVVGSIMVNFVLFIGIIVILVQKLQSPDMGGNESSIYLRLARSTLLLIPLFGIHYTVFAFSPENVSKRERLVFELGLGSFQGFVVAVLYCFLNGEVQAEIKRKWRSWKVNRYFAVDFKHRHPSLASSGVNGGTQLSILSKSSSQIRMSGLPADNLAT
The assay can be described thus: Intracellular cyclic AMP of human PACAP receptor protein-expressed CHO-K1 cells. In kind it is cell-based. To be noted: 37° C., 30 minutes, 0.2 mM 3-isobutyl-1-methylxanthine, FIG. 48. As for the experimental part: After washing twice with Hank's buffer containing the culture buffer, 10 mM HEPES and 0.05% BSA, the CHO-K1 cells were cultivated in the above-mentioned buffer supplemented with 0.2 mM 3-isobutyl-1-methylxanthine at 37° C. for 60 minutes. […] After absorption of the buffer, the cells were washed twice with the culture buffer. Then, cAMP was extracted from the cells with 20% perchloric acid. After transfer to a 1.5-ml Eppendorf tube, the extract was centrifuged with a Tomy microcentrifuge at 12,000 rpm for 5 minutes, and the supernatant was neutralized with 1.5 N KOH/60 mM HEPES to prepare a cell eluted solution. The concentration of cyclic AMP was determined by the acetylation method of a cAMP assay system (Amersham). Under these determination conditions, when nothing was added, the amount of intracellular CAMP was 0.7 pmole/well.

For assay [2], the target named is T1, human PACAP receptor protein. Briefly: Competitive inhibition experiment, membrane fraction of human PACAP receptor-expressed CHO-K1 cells. In kind it is binding. To be noted: FIG. 47. As for the experimental part: (§1) The test sample (membrane fraction or solubilized membrane protein fraction) was appropriately diluted with buffer D (20 mM Tris, 5 mM magnesium chloride, 0.1% BSA and 0.05% digitonin, pH 7.4). […] To 0.1 ml of this reaction solution, 1.5 ml of buffer E (0.1% BSA, 0.05% CHAPS, 20 mM Tris and 5 mM magnesium chloride, pH 7.4) cooled with ice was added, and immediately, the mixed solution is filtered through a glass fiber filter. […] Results of the saturation binding experiment were subjected to Scatchard plot analysis to determine the dissociation constant and the maximum binding.

Assay [3] addresses T2, Bovine PACAP receptor protein (Bos taurus, UniProt Q29627).
T2 construct: The complete primary structure of bovine PACAP receptor protein based on pBPR-T was deduced; expressed in transfected cells; host or cells: CHO cells, pBPR-T in pRc/CMV, G-418 selected
T2 sequence (Q29627 38-513): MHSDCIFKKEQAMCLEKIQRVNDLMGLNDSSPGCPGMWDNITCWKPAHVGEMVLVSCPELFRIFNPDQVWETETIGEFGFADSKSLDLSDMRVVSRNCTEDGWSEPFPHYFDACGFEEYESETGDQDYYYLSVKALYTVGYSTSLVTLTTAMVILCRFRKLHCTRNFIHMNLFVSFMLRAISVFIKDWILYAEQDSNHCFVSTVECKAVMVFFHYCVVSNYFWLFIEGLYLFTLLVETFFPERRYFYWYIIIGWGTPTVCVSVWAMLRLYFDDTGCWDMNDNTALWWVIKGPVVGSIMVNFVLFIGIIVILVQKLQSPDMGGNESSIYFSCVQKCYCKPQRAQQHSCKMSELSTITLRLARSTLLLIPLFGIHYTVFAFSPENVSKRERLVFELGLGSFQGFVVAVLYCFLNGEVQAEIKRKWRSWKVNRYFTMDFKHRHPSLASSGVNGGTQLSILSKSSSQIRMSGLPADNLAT
The assay can be described thus: Intracellular inositol phosphate of bovine PACAP receptor cDNA-expressed CHO cells. In kind it is cell-based. The conditions noted are these: 37° C., 20 minutes, FIG. 37. As for the experimental part: The pathway of signal transmission of inositol phosphate well known as the pathway of signal transmission together with cyclic AMP was examined. […] One hundred microliters of 20% perchloric acid was added thereto to stop the reaction, and intracellular inositol phosphate was extracted. The extract was neutralized with 1.5 M KOH. All inositol phosphate was separated from free inositol by the use of ion exchange chromatography (AGI-X8, Bio RAD). Thereafter, inositol phosphate was eluted with 1 M ammonium formate/0.1 M formic acid, and the amount of inositol phosphate was measured with a scintillation counter.

In the next assay the test system is PACAP receptor. To be noted: unlabeled peptide, tissue membrane fraction; cited from earlier work.
For assay [4], the target named is T2, Bovine PACAP receptor protein. The assay can be described thus: Intracellular cyclic AMP production of bovine PACAP receptor cDNA-expressed CHO cells. The conditions noted are these: 37° C., 30 minutes, 0.2 mM 3-isobutyl-1-methylxanthine, FIG. 36. In kind it is cell-based.
Method: Three days after the transformants (CHO cells) were plated on a 24-well plate, the cells were washed with Hank's buffer (composition: 8 g/l NaCl, 0.4 g/l KCl, 0.06 g/l Na2HPO4, 1.0 g/l glucose, 0.2 g/l MgSO4, 0.14 g/l CaCl2 and 0.35 g/l NaHCO3) supplemented with 0.05% BSA, and treated in the presence of 0.2 mM 3-isobutyl-1-methylxanthine at 37° C. for 1 hour. […] After the cells were washed with the above-mentioned Hank's buffer supplemented with 0.05% BSA, intracellular cyclic AMP was extracted by the use of 500 μl of Hank's buffer and 100 μl of 20% perchloric acid, and neutralized with 1.5 M KOH. The amount of cyclic AMP was assayed with a cAMP oxygen immunoassay system (BIOTRAK Amersham).
In assay [5] the target is T3, purified bovine PACAP receptor protein (Bos taurus, UniProt Q29627).
T3 construct: from tissue; host or cells: bovine cerebrum
T3 sequence (Q29627 38-513): T2 sequence (Q29627 38-513)
The assay can be described thus: Competitive binding experiment for the purified PACAP receptor protein with [125I]PACAP27. To be noted: vs 100 pM [125I]PACAP27, FIG. 31. As for the experimental part:
as §1
Analysis results obtained by polyacrylamide electrophoresis for the final purified sample in the presence of sodium dodecylsulfate are shown in FIG. 28. […] This protein having a molecular weight of about 57,000 is the PACAP receptor protein occurring in the bovine cerebrums.

The target in assay [6] is T2, Bovine PACAP receptor protein. The assay can be described thus: Competitive binding experiment, membrane fraction of bovine PACAP receptor cDNA (pBPR-T)-expressed CHO cells. The conditions noted are these: 100 pM [125I]-PACAP27, 25° C., 75 minutes, FIG. 35. As for the experimental part: The transformants (CHO cells) cultivated for 3 days after subculture were separated using 0.2 mM EDTA/phosphate buffer, and suspended in 10 mM sodium carbonate buffer supplemented with 1 mM EDTA, 0.5 mM phenylmethylsulfonyl fluoride (PMSA), 20 μg/ml leupeptin, 4 μg/ml E-64 and 1 μg/ml pepstatin. The suspended cells were disrupted with a Polytron homogenizer (Kinematica). The disrupted product was centrifuged with a high speed cooling centrifuge (CR26H, Roter RR18, Hitachi, Ltd.) at 3,000 rpm for 10 minutes to obtain a supernatant. The resulting supernatant was further ultracentrifuged with an ultracentrifuge (SCP70H, Roter RPZ35T, Hitachi, Ltd.) at 30,000 rpm for 60 minutes to obtain pellets. The resulting pellets were suspended in a buffer [20 mM Tris-HCl (pH 7.4), 0.25 M sucrose, 2 mM EDTa, 0.5 mM PMSF, 20 μg/ml leupeptin and 1 μg/ml pepstatin] to prepare a membrane fraction suspension.
Bound ligands were separated from free ligands through a glass fiber filter. […] The binding was examined with a a γ-ray counter. The dissociation constant and the maximum binding were examined by Scatchard plot analysis (FIG. 34).

In assay [7] the target is T4, rat PACAP receptor protein Type I-A (pRPR3-A) (Rattus norvegicus, UniProt P32215).
T4 construct: pRPACAPR46 and pRPACAPR5 were recombined at the BamHI site to prepare pRPACAPR46-5 having a complete translation frame; expressed in transfected cells; host or cells: CHO cells, pRPR3-A (pRc/CMV); clone A12 for cAMP
T4 sequence (P32215 20-467 isoform P32215-5 limits assumed): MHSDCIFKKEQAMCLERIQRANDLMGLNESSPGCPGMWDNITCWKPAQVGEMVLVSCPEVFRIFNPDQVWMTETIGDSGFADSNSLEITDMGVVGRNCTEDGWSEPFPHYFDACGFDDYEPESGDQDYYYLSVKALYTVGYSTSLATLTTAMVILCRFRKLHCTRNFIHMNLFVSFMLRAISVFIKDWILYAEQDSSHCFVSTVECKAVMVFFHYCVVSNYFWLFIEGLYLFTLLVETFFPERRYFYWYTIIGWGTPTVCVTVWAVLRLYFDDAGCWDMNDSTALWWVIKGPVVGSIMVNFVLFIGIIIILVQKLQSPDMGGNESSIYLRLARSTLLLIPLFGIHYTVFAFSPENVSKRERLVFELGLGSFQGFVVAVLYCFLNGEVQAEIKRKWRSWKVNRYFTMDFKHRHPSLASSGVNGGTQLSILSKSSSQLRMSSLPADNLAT
Briefly: Competitive binding with [125I]-PACAP27, membrane fraction of pRPR3-A-introduced CHO cells. The conditions noted are these: 100 pM [125I]-PACAP27, 25° C., 1 hour, FIG. 40 (A). As for the experimental part: (§2) The pRPR3-A-introduced and pRPR4-B-introduced CHO cells obtained in (2) described above were each disrupted in sodium carbonate buffer containing 1 mM EDTA, 0.5 mM PMSF, 20 μg/ml leupeptin, 4 μg/ml E-64 and 1 μg/ml pepstatin with a Polytron homogenizer (Kinematica) to prepare membrane fractions. Using the membrane fractions, complex binding experiments were conducted. For each of the membrane fractions of the pRPR3-A-introduced CHO cells and the pRPR4-B-introduced CHO cells, each of 10 μg and 15 μg (converted to a protein amount) thereof was ligated with. […] The reaction was conducted at 25° C. for 1 hour, and bound ligands were separated from free ligands by filtration through a filter. […] The amount of bound ligands was measured with a γ-counter.

The target in assay [8] is T5, rat PACAP receptor protein Type I-B (pRPR4-B) (Rattus norvegicus, UniProt P32215).
T5 construct: two kinds of complete primary structures of rat PACAP receptor protein were deduced; expressed in transfected cells; host or cells: CHO cells, pRPR4-B (pRc/CMV); clone B17 for cAMP
T5 sequence (P32215 20-495 isoform P32215-2 limits assumed): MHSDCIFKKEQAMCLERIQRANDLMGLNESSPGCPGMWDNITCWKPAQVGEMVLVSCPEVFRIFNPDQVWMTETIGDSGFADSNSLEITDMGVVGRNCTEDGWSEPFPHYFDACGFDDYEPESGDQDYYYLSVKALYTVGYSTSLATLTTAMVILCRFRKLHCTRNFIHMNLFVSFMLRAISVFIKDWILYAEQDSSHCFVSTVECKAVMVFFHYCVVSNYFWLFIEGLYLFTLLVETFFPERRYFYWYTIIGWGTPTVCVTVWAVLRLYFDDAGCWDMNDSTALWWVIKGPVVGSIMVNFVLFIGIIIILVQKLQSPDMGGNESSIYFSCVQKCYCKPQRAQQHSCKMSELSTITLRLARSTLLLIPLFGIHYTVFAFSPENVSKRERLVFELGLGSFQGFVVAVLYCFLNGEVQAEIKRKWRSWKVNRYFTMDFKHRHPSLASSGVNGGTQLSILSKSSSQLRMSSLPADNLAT
The assay can be described thus: Intracellular cyclic AMP of rat PACAP receptor cDNA-introduced CHO cells, strain B17. In kind it is cell-based. To be noted: CHO strain B17, 37° C., 40 minutes, 0.5 mM IBMX, FIG. 43. As for the experimental part: (§3) Each 48-well plate for tissue culture was inoculated with each of the cell strains. at a density of 1.0×10^5 cells/well, followed by cultivation for 3 days. The plate was washed twice with Ham's F12 medium supplemented with 0.1% BSA and 0.5 mM IBMX, and 500 μl/well of the same medium was added thereto. […] The supernatant was removed, and extraction was conducted with 100% cold ethanol. The extract was evaporated to dryness with a centrifugal freeze dryer, and redissolved in the buffer attached to an EIA kit for assaying cyclic AMP (Amersham). Then, the amount of cyclic AMP was assayed according to the formulation of the kit.

Assay [9] concerns the target T4, rat PACAP receptor protein Type I-A (pRPR3-A). Briefly: Intracellular cyclic AMP of rat PACAP receptor cDNA-introduced CHO cells, strain A12. To be noted: CHO strain A12, 37° C., 40 minutes, 0.5 mM IBMX, FIG. 43. In kind it is cell-based. As for the experimental part:
as §3

For assay [10], the target named is T5, rat PACAP receptor protein Type I-B (pRPR4-B). Briefly: Competitive binding with [125I]-PACAP27, membrane fraction of pRPR4-B-introduced CHO cells. The conditions noted are these: 100 pM [125I]-PACAP27, 25° C., 1 hour, FIG. 40 (B). As for the experimental part:
as §2

We go through three substances from patent US6399316B1, “PACAP receptor protein, method for preparing said protein, and use thereof” (Takeda Chemical Industries, Ltd., priority 1994, dated 2002).

Take PACAP27: the “concentration of intracellular cAMP” value in [1] was “increased depending on the concentrations”. Further, the “competition with [125I]-PACAP27” value in assay [2] is listed as “competed”. Besides, the “concentration of inositol phosphate” value in [3] was “increased depending on the concentrations”. Further, in the assay with PACAP receptor, the “inhibition of [125I]PACAP27 binding to the membrane fraction” value (“inhibition … to the membrane fraction” for short) is “inhibited”. The “concentration of intracellular cyclic AMP” value in assay [4] is “increased depending on the concentrations”. Further, the “reaction with purified PACAP receptor protein in competitive binding experiment” value in [5] is reported as “reacting”. For the same substance, the “reactivity (competition with [125I]-PACAP27)” value in assay [6] is given as “high reactivity”.
For the substance “PACAP38: pituitary adenylate cyclase activating polypeptide consisting of 38 amino acid residues, SEQ ID NO: 46-NH2”, the “inhibition … to the membrane fraction” value with PACAP receptor is “inhibited”.
As for Vasoactive intestinal peptide [VIP], the “concentration of intracellular cAMP” value in assay [1] was “little raised”. Besides, the “competition with [125I]-PACAP27” value in assay [7] and in [10] was “competition was observed only at a concentration much higher than that of PACAP27” throughout. In addition, the “weakness relative to PACAP27 in competitive inhibition” value in [2] is listed as 1,000 times. The “production of intracellular cyclic AMP” value in [8] and in assay [9] was “a concentration much higher than that of the PACAPs was required” in each case. The “inhibition … to the membrane fraction” value in the assay on PACAP receptor is “not inhibited”. For the same substance, in assay [5], the “reaction with purified PACAP receptor protein in competitive binding experiment” value is “not reacting”. The “reactivity (competition with [125I]-PACAP27)” value in [6] is given as “low in reactivity”.
